Laboratory results published in patent publication US20110144014A1, “CYTOKINE RECEPTOR MODULATORS AND USES THEREOF” (CENTRE HOSPITALIER UNIVERSITAIRE SAINTE-JUSTINE, priority 2005, published 2011).
Where a SMILES comes first, the peptide text is derived from it. [ ]: non-standard residue; d: D form.

How the values were obtained:
[1] = system: PMA-induced ear skin inflammation; assay: PMA-induced skin dermatitis of rat ears; assay type: in vivo; conditions: topical
Protocol: To verify the efficacy of a topical application of API-101.10 in a skin model of inflammation, 10 μl of 0.05% (in acetone) of the irritating agent PMA was applied on ears of 5 weeks old CD-1 male […] (Charles River) to induce contact dermatitis. The right ear received the vehicle only and left ear received the peptide or IL-1Ra analog Kineret® (Amgen). Ten μl of a final concentration of 10^−5M peptide diluted in PEG was applied 45 minutes and 4 hours after the induction of the inflammation with PMA. The commercial analog of IL-1R antagonist (IL-Ra), Kineret® was applied as a positive control at a concentration of 50 μg/10 μl of PEG. The drug was applied with a pipet tip adapted for the viscosity of the solution. Eighteen hours after the peptide treatment animals were sacrificed and ears were cut, weighed and their […] was measured with a caliper. Ear tumefaction (%) was determined: […] where a=thickness of left treated ear and b=thickness of right control ear.

IL-1R/IL-1RacP [2] = biological target: T1, IL-1R/IL-1RacP (Rattus norvegicus, UniProt Q02955+Q63621); assay: IL-1β induced hypotension in rats; assay type: in vivo
T1 construct: 300 g Sprague-Dawley rats were anesthetized with isoflurane; from tissue; host or cells: whole animal (Sprague-Dawley rat)
T1 sequence (Q02955 20-576): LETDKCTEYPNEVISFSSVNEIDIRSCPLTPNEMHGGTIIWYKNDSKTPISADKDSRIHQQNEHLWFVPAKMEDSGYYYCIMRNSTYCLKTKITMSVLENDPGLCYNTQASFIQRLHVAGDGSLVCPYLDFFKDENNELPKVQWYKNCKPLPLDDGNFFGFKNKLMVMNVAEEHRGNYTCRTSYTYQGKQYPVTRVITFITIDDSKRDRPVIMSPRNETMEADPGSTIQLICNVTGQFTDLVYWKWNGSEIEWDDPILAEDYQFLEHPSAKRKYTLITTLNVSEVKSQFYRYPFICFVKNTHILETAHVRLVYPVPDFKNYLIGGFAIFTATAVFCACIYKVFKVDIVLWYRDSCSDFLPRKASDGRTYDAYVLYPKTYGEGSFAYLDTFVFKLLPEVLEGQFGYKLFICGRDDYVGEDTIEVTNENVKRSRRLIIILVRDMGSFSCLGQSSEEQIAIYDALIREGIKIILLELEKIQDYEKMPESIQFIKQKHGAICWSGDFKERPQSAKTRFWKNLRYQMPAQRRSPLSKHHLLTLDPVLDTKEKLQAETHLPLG
T1 sequence (Q63621 21-570): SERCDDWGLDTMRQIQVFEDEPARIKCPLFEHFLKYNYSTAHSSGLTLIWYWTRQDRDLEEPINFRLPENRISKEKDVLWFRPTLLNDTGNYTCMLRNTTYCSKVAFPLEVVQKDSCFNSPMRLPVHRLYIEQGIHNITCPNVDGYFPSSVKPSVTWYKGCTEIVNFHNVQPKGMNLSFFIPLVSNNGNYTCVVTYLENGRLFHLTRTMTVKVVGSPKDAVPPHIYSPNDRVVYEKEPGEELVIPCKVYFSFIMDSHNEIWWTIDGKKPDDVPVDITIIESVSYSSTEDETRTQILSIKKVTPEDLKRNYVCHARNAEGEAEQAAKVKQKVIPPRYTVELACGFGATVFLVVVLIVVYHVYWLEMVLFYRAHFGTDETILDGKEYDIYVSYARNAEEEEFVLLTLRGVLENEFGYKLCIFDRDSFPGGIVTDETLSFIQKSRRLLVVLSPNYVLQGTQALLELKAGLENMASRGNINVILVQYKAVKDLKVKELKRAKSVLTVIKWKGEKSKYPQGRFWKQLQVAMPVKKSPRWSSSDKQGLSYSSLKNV
Protocol: The goal of the next experiment was to verify whether the identified peptides can reverse the physiological actions of the natural cytokine in vivo either by injecting them through the jugular or directly in the stomach (to verify the stability of the peptide through the digestive tractus). 300 g Sprague-Dawley rats were anesthetized with isoflurane (2.5-4%). IL-1β was injected through the jugular. Blood was taken from the carotid for further analyses before and after (10 minutes) every injection. Peptides were then injected either directly in the stomach with a catheter or in the jugular at the concentration desired. Arterial blood pressure and other physiological characteristics were monitored at all times.
The API-101 derivatives, API-101.10 (and others) were also tested to assess whether they could reverse the physiological actions of the natural ligand in vivo by injecting the derivative through the jugular or directly into the stomach (to verify the stability of the peptide through the digestive tract). […] Arterial blood pressure and heart rate were continuously monitored (Gould) while temperature and blood gases (Radiometer) were measured for routine analysis as previously described (Li et al., Am. J. Physiol. 273:R1283-R1290, 1997; Hardy et al., Pediatr. Res. 46:375-382, 1999; Najarian et al., Circ. Res. 87:1149-1156, 2000). […]

IL-1R/IL-1RacP [3] = assay: IL-1-induced PGE2 synthesis in endothelial cells; assay type: cell-based, porcine
Protocol: Efficiencies and inhibitory activities of the mutated peptides were determined by measuring the inhibition of IL-1-induced PGE2 synthesis. […] All peptides were tested at concentration 10^−6M.
The arginine of API-101.10 (SEQ ID NO: 10) was replaced by citrulline—to change from a guanidine to a urea group near the N-terminal. Other mutations (e.g. E to Q in API-101.102 and API-101.103) and a truncated peptide at the C-terminal (API-101.108) were also performed to improve the potency and the efficacy of the peptides. Measurement of PGE2 was performed with piglet brain microvessel endothelial cells and WI-38 human fibroblasts. Some of the mutations were advantageous and gave major increases in potency.
IL-1-induced PGE2 synthesis assay on endothelial cells was used as a screening assay for the peptidomimetics.

Q: What does the source list for `CC(C)C[C@@H](NC(=O)[C@@H](CCC(=O)O)NC(=O)[C@H](NC(=O)[C@H](NC(=O)[C@@H](Cc1ccc(O)cc1)NC(=O)[C@H](N)CCCNC(=N)N)[C@H](C)O)C(C)C)C(=O)N[C@H](C)C(N)=O` [API-101.10, RYTVELA] (H-[dR][dY][dT][dV][dE][dL][dA]-NH2; N-terminus and C-terminus assumed)?
A: ear weight compared with PMA-induced inflamed ear ([1]; 10^−5M in PEG): reduction in weight; prevention of ear tumefaction ([1]; 10 μl of 10^−5M in PEG, 45 min and 4 h after PMA): 50%; reduction of IL-1β induced hypotension (IL-1R/IL-1RacP [2]; directly into the stomach, 10^−5M): 60%; prevention of IL-1β induced hypotension (IL-1R/IL-1RacP [2]; jugular vein injection, 10^−8M, IL-1β 5 μg/kg): 95%; IC50 (IL-1R/IL-1RacP [3]): 1.2 nM
